In PMC5666424, “Marine-Derived 2-Aminoimidazolone Alkaloids. Leucettamine B-Related Polyandrocarpamines Inhibit Mammalian and Protozoan DYRK & CLK Kinases” (Marine Drugs, 2017):

Key:
Assay in all cases: KinomeScan
Assay type in all cases: binding
Settings in all cases: 1 μM
[1] = biological target: T1, SIK2 (Homo sapiens, UniProt Q9H0K1)
T1 construct: purchased DiscoverX (KINOMEscan)

[2] = biological target: T2, CSNK1A1 (Homo sapiens, UniProt P48729)
T2 construct: purchased DiscoverX (KINOMEscan)

[3] = biological target: T3, BRAF (Homo sapiens, UniProt P15056)
T3 construct: purchased DiscoverX (KINOMEscan)

[4] = biological target: T4, ACVR2B (Homo sapiens, UniProt Q13705)
T4 construct: purchased DiscoverX (KINOMEscan)
T4 sequence (Q13705 19-512): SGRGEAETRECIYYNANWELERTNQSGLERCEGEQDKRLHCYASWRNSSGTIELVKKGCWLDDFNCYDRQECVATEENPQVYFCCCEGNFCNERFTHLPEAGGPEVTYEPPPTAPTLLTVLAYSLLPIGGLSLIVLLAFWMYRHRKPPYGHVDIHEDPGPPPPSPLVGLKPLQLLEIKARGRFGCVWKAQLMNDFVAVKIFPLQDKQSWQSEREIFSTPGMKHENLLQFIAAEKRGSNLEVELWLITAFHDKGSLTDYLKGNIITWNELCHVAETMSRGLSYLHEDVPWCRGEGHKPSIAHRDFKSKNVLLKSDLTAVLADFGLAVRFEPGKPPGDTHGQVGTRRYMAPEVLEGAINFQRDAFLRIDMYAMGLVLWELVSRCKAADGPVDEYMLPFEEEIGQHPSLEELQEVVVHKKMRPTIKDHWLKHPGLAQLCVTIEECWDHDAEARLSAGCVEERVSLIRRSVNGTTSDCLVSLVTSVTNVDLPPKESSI

[5] = biological target: T5, MAP3K3 (Homo sapiens, UniProt Q99759)
T5 construct: purchased DiscoverX (KINOMEscan)

[6] = biological target: T6, ABL1(F317L)-nonphosphorylated (Homo sapiens, UniProt P00519, F317L)
T6 construct: purchased DiscoverX (KINOMEscan)

[7] = biological target: T7, BMPR1B (Homo sapiens, UniProt O00238)
T7 construct: purchased DiscoverX (KINOMEscan)

[8] = biological target: T8, ERBB4 (Homo sapiens, UniProt Q15303)
T8 construct: purchased DiscoverX (KINOMEscan)
T8 sequence (Q15303 26-1308): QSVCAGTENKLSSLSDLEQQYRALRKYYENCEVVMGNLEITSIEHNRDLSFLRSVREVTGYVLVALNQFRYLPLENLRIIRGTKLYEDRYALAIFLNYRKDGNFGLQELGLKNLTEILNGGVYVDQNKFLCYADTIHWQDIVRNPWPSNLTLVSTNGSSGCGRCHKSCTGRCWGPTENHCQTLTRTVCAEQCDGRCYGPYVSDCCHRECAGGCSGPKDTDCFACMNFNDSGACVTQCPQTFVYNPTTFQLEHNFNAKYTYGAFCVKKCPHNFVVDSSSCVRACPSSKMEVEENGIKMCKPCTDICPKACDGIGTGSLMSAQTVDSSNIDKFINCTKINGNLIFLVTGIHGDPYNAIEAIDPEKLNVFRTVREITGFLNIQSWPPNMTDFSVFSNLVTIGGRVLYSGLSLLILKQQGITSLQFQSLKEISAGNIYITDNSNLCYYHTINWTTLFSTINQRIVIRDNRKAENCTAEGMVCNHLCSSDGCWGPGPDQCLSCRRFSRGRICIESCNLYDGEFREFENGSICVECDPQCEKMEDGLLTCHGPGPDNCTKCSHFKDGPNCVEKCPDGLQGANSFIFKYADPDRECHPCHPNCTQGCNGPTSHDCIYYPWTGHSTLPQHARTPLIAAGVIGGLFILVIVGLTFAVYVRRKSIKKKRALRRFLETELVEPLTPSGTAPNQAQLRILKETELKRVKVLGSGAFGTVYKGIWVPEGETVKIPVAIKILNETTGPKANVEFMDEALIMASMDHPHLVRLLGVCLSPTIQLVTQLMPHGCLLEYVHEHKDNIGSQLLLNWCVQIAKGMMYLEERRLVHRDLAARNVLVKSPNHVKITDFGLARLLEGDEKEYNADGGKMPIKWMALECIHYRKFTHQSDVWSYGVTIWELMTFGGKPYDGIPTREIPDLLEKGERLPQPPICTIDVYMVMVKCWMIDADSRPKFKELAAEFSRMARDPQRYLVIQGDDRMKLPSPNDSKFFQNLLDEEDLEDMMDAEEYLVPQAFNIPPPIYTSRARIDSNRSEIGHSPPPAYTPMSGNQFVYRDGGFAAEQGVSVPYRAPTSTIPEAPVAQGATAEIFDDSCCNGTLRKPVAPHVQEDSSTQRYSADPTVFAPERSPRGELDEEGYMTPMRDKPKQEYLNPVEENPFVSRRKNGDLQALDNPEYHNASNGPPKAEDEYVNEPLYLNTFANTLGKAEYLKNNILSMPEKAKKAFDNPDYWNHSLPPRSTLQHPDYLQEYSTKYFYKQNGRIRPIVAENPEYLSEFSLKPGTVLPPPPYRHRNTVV

[9] = biological target: T9, ABL1(T315I)-nonphosphorylated (Homo sapiens, UniProt P00519, T315I)
T9 construct: purchased DiscoverX (KINOMEscan)

[10] = biological target: T10, CDK3 (Homo sapiens, UniProt Q00526)
T10 construct: purchased DiscoverX (KINOMEscan)
T10 sequence (Q00526 whole entry): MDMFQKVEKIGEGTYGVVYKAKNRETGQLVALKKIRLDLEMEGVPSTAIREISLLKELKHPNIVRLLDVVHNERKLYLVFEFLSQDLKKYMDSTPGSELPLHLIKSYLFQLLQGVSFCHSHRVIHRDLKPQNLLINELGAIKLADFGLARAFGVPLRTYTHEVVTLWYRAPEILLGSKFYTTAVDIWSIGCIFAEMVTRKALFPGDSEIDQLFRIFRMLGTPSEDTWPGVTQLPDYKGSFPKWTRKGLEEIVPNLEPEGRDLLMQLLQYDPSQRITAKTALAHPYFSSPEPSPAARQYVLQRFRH

[11] = biological target: T11, MAST1 (Homo sapiens, UniProt Q9Y2H9)
T11 construct: purchased DiscoverX (KINOMEscan)

[12] = biological target: T12, KIT(A829P) (Homo sapiens, UniProt P10721, A829P)
T12 construct: purchased DiscoverX (KINOMEscan)

[13] = biological target: T13, BRSK2 (Homo sapiens, UniProt Q8IWQ3)
T13 construct: purchased DiscoverX (KINOMEscan)
T13 sequence (Q8IWQ3 whole entry): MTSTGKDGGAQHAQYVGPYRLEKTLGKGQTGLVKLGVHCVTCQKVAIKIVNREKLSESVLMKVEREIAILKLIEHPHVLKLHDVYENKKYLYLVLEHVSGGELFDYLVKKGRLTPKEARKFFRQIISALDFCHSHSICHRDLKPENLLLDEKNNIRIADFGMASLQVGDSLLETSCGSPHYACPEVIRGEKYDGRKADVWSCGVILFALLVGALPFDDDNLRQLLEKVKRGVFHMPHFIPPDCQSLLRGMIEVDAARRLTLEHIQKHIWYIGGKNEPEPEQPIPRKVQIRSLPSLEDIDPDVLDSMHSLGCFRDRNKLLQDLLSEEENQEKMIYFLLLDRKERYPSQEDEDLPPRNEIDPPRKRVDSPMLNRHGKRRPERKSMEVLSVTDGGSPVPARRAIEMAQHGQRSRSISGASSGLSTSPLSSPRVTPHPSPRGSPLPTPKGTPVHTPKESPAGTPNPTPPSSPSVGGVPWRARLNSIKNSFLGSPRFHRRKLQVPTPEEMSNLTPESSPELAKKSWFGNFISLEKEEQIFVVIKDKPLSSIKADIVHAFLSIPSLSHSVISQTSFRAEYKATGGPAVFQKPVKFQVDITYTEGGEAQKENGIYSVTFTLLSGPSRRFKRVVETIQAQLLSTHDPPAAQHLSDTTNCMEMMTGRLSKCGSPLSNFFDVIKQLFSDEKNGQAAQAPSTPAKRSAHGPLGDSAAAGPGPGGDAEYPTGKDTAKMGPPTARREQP

[14] = biological target: T14, LRRK2(G2019S) (Homo sapiens, UniProt Q5S007, G2019S)
T14 construct: purchased DiscoverX (KINOMEscan)

[15] = biological target: T15, HCK (Homo sapiens, UniProt P08631)
T15 construct: purchased DiscoverX (KINOMEscan)

[16] = biological target: T16, AMPK-alpha1 (Homo sapiens, UniProt Q13131)
T16 construct: purchased DiscoverX (KINOMEscan)

[17] = biological target: T17, NDR2 (Homo sapiens, UniProt Q9Y2H1)
T17 construct: purchased DiscoverX (KINOMEscan)

[18] = biological target: T18, CDK4-cyclinD1 (Homo sapiens, UniProt P11802)
T18 construct: purchased DiscoverX (KINOMEscan)

[19] = biological target: T19, IGF1R (Homo sapiens, UniProt P08069)
T19 construct: purchased DiscoverX (KINOMEscan)

[20] = biological target: T20, AKT3 (Homo sapiens, UniProt Q9Y243)
T20 construct: purchased DiscoverX (KINOMEscan)
T20 sequence (Q9Y243 whole entry): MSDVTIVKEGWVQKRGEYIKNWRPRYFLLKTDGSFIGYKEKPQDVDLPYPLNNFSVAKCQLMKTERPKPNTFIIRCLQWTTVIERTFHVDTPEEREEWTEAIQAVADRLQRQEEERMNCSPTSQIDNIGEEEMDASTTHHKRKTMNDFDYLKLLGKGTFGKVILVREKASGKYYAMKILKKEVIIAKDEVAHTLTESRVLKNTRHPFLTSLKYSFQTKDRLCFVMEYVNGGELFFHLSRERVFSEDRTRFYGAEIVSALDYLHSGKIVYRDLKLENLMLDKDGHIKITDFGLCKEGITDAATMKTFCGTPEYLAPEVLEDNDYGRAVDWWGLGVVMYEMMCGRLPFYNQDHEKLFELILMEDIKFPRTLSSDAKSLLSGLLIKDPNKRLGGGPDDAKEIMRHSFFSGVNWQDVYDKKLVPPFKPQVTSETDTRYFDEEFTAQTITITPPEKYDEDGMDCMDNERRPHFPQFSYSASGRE

[21] = biological target: T21, YES (Homo sapiens, UniProt P07947)
T21 construct: purchased DiscoverX (KINOMEscan)

[22] = biological target: T22, TYRO3 (Homo sapiens, UniProt Q06418)
T22 construct: purchased DiscoverX (KINOMEscan)

[23] = biological target: T23, MLK1 (Homo sapiens, UniProt P80192)
T23 construct: purchased DiscoverX (KINOMEscan)
T23 sequence (P80192 whole entry): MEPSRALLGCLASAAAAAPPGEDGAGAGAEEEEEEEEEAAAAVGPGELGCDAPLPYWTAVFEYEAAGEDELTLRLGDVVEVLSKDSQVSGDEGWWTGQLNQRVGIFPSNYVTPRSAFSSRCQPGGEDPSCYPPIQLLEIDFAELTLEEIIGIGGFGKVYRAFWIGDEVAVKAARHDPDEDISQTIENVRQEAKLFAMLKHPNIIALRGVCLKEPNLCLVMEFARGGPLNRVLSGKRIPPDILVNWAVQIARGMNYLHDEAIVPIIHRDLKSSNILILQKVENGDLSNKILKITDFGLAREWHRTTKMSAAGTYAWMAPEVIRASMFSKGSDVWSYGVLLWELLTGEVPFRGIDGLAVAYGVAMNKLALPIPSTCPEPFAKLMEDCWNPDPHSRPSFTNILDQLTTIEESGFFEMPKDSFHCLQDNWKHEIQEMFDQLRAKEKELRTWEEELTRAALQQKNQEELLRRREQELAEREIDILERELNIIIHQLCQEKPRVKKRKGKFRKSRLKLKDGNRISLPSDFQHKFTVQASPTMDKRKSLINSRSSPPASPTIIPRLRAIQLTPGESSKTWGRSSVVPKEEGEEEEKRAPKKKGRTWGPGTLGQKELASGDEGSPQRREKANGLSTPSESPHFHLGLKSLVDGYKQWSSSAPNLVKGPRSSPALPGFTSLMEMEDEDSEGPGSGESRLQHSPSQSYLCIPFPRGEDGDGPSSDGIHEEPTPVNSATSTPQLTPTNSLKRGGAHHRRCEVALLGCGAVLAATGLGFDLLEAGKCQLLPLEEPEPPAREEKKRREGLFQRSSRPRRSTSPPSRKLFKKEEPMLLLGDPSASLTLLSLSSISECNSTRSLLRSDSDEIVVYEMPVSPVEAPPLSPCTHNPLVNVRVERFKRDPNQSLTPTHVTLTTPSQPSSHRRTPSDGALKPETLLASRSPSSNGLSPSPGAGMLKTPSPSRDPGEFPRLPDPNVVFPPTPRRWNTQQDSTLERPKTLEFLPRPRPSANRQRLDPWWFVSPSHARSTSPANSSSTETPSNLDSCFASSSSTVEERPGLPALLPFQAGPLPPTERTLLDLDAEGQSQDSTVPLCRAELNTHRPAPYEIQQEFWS

[24] = biological target: T24, MEK1 (Homo sapiens, UniProt Q02750)
T24 construct: purchased DiscoverX (KINOMEscan)
T24 sequence (Q02750 whole entry): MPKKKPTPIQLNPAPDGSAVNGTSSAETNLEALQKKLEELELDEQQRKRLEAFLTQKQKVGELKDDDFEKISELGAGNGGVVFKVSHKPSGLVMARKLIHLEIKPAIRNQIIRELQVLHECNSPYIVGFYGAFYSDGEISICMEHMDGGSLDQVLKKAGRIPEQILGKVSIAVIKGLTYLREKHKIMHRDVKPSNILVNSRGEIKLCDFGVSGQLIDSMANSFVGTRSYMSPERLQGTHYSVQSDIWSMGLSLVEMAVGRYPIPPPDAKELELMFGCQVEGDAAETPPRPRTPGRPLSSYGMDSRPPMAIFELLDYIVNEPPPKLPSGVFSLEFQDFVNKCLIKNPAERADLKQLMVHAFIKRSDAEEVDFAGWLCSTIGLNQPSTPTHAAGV

[25] = biological target: T25, CLK4 (Homo sapiens, UniProt Q9HAZ1)
T25 construct: purchased DiscoverX (KINOMEscan)

[26] = biological target: T26, FLT4 (Homo sapiens, UniProt P35916)
T26 construct: purchased DiscoverX (KINOMEscan)

[27] = biological target: T27, ERBB3 (Homo sapiens, UniProt P21860)
T27 construct: purchased DiscoverX (KINOMEscan)

[28] = biological target: T28, CDC2L5 (Homo sapiens, UniProt Q14004)
T28 construct: purchased DiscoverX (KINOMEscan)

[29] = biological target: T29, LATS2 (Homo sapiens, UniProt Q9NRM7)
T29 construct: purchased DiscoverX (KINOMEscan)

[30] = biological target: T30, CAMK1D (Homo sapiens, UniProt Q8IU85)
T30 construct: purchased DiscoverX (KINOMEscan)

[31] = biological target: T31, MEK3 (Homo sapiens, UniProt P46734)
T31 construct: purchased DiscoverX (KINOMEscan)

[32] = biological target: T32, ERBB2 (Homo sapiens, UniProt P04626)
T32 construct: purchased DiscoverX (KINOMEscan)

[33] = biological target: T33, TYK2(JH2domain-pseudokinase) (Homo sapiens, UniProt P29597)
T33 construct: TYK2(JH2domain-pseudokinase); purchased DiscoverX (KINOMEscan)

[34] = biological target: T34, ABL1(H396P)-phosphorylated (Homo sapiens, UniProt P00519, H396P)
T34 construct: purchased DiscoverX (KINOMEscan)

[35] = biological target: T35, ABL1(F317I)-nonphosphorylated (Homo sapiens, UniProt P00519, F317I)
T35 construct: purchased DiscoverX (KINOMEscan)

[36] = biological target: T36, GAK (Homo sapiens, UniProt O14976)
T36 construct: purchased DiscoverX (KINOMEscan)

Measured: Score

COc1cc(/C=C2\N=C(N)NC2=O)ccc1O [Polyandrocarpamine A]
96: [18]
92: [35]
30: [25]
67: [9]
91: [12] | [17]
42: [7]
94: [1]
100: [2] | [3] | [5] | [6] | [10] | [11] | [13] | [14] | [15] | [16] | [19] | [20] | [21] | [22] | [23] | [24] | [26] | [27] | [28] | [29] | [30] | [32] | [33] | [34] | [36]
99: [4] | [8]
98: [31]
